Experimental data: the supplement of paper PMC11208160

experiment: recombinant UMI read abundance after kanamycin selection (control-corrected) (log10(CPM+1)); higher = more efficient recombination; extreme values may be limits of the assay; sequences stand for … in AGTGCAGAGAAAATCGGCCAGTTTTCTCTGCCTGCAGTCCGCATGCCGTGGGACCCCTTGGGTTCTAACCTGTTGCCTAGATTTATGCAGCGGACTGCCTTTCTCCCAAAGTGATAAACCGG…AGGTTGGTTTCACT; site = the 11-nt donor
Outline: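 Sequenced counts of recombinant UMIs were turned into CPM, averaged across replicates and scaled with control-derived factors. The reported figure is log10(CPM+1). Those UMIs, each 12 nt long, tagged donor and donor-binding-loop pairs on a plasmid with a promoterless kanamycin gene, screened as a pool in Escherichia coli with IPTG (0.07 mM) plus kanamycin or without selection.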
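Note: IS621 bridge recombinase in Escherichia coli cells against a fixed T5 target plasmid.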

Row | Sequence | recombinant UMI read abundance (log10)
1 | CGATAACCATGGACCGGTTTTCCCGGTAATCCGTATTTGGT (site CGATAACCTAC) | 0
2 | CGATACTCATGGACCGGTTTTCCCGGTAATCCGTATTTGCT (site CGATACTCTAG) | 2.52
3 | CGATACTCATGGACCGGTTTTCCCGGTAATCCGTATTTGCT (site CGATCATCTAG) | 0
4 | CGATAGACATGGACCGGTTTTCCCGGTAATCCGTATTTGCC (site AGATAGACTGG) | 0
5 | CGATAGACATGGACCGGTTTTCCCGGTAATCCGTATTTGCC (site CGATAGACTGG) | 2.96
6 | CGATAGACATGGACCGGTTTTCCCGGTAATCCGTATTTGCC (site GGATAGACTGG) | 0
7 | CGATAGACATGGACCGGTTTTCCCGGTAATCCGTATTTGCC (site TGATAGACTGG) | 0
8 | CGATAGCCATGGACCGGTTTTCCCGGTAATCCGTATTTGCT (site CGATAGCCTAG) | 1.12
9 | CGATATACATGGACCGGTTTTCCCGGTAATCCGTATTTGTA (site CGATATACTTA) | 2.25
10 | CGATATGCATGGACCGGTTTTCCCGGTAATCCGTATTTGGG (site CGATATGCTCC) | 0.685
11 | CGATCAACATGGACCGGTTTTCCCGGTAATCCGTATTTGGT (site CGATCAACTAC) | 0.796
12 | CGATCAACATGGACCGGTTTTCCCGGTAATCCGTATTTGGT (site CGATCATCTAG) | 0
13 | CGATCACCATGGACCGGTTTTCCCGGTAATCCGTATTTGCC (site CGATCACCTGG) | 0
14 | CGATCACCATGGACCGGTTTTCCCGGTAATCCGTATTTGCC (site CGATCATCTAG) | 0
15 | CGATCACCATGGACCGGTTTTCCCGGTAATCCGTATTTGCT (site CGATCAACTAG) | 0
16 | CGATCACCATGGACCGGTTTTCCCGGTAATCCGTATTTGCT (site CGATCACCTAG) | 0
17 | CGATCACCATGGACCGGTTTTCCCGGTAATCCGTATTTGCT (site CGATCAGCTAG) | 0
18 | CGATCACCATGGACCGGTTTTCCCGGTAATCCGTATTTGCT (site CGATCATCTAG) | 0
19 | CGATCAGCATGGACCGGTTTTCCCGGTAATCCGTATTTGCA (site CGATCAGCTTG) | 1.9

Row | Sequence | recombinant UMI read abundance (log10)
20 | CGATCAGCATGGACCGGTTTTCCCGGTAATCCGTATTTGCA (site CGATCATCTAG) | 0
21 | CGATCAGCATGGACCGGTTTTCCCGGTAATCCGTATTTGCT (site CGATCAACTAG) | 0
22 | CGATCAGCATGGACCGGTTTTCCCGGTAATCCGTATTTGCT (site CGATCACCTAG) | 0
23 | CGATCAGCATGGACCGGTTTTCCCGGTAATCCGTATTTGCT (site CGATCAGCTAG) | 1.61
24 | CGATCAGCATGGACCGGTTTTCCCGGTAATCCGTATTTGCT (site CGATCATCTAG) | 0
25 | CGATCATCATGGACCGGTTTTCCCGGTAATCCGTATTTGGT (site CGATCATCTAA) | 0.00543
26 | CGATCATCATGGACCGGTTTTCCCGGTAATCCGTATTTGGT (site CGATCATCTAC) | 1.58
27 | CGATCATCATGGACCGGTTTTCCCGGTAATCCGTATTTGGT (site CGATCATCTAG) | 0.495
28 | CGATCATCATGGACCGGTTTTCCCGGTAATCCGTATTTGGT (site CGATCATCTAT) | 1.08
29 | CGATCGACATGGACCGGTTTTCCCGGTAATCCGTATTTGCT (site CGATCGACTAA) | 0.3
30 | CGATCGACATGGACCGGTTTTCCCGGTAATCCGTATTTGCT (site CGATCGACTAC) | 0.00923
31 | CGATCGACATGGACCGGTTTTCCCGGTAATCCGTATTTGCT (site CGATCGACTAG) | 2.63
32 | CGATCGACATGGACCGGTTTTCCCGGTAATCCGTATTTGCT (site CGATCGACTAT) | 0.0395
33 | CGATCGACATGGACCGGTTTTCCCGGTAATCCGTATTTGTC (site CGATCGACTAA) | 0.00466
34 | CGATCGACATGGACCGGTTTTCCCGGTAATCCGTATTTGTC (site CGATCGACTCA) | 0
35 | CGATCGACATGGACCGGTTTTCCCGGTAATCCGTATTTGTC (site CGATCGACTGA) | 1.08
36 | CGATCGACATGGACCGGTTTTCCCGGTAATCCGTATTTGTC (site CGATCGACTTA) | 0
37 | CGATCGGCATGGACCGGTTTTCCCGGTAATCCGTATTTGAA (site CGATCGGCTTT) | 1.25
38 | CGATCGTCATGGACCGGTTTTCCCGGTAATCCGTATTTGTT (site CGATCGACTAA) | 0.00634
